14 compounds from PubChem BioAssay (NCI) can be followed below.

SMILES strings stand for the structures.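 Protocol summary: plate cells (96-well), add compound at 5 concentrations, incubate 48 h, interpolate endpoints linearly. The concentration for 50% growth inhibition is given as GI50. TGI: concentration producing complete growth inhibition.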

Test systems include SF-539 CNS; HOP-62 NSCLC; NCI-H460 lung; CAKI-1 renal; ACHN renal; SF-295 CNS; M19-MEL melanoma; SK-MEL-5 melanoma; HCT-15 colon; NCI/ADR-RES ovarian.
Experiment in all cases: NCI-60 cell line screen, 48 h

For `CNC(C)(C)Cc1ccc(Cl)cc1`, the TGI in the test with SF-539 CNS, with HOP-62 NSCLC, in the test with NCI-H460 lung, with CAKI-1 renal, in the test with ACHN renal and in the test with SF-295 CNS was greater than 100 µM each time. Further, the TGI in the test with M19-MEL melanoma and in the test with SK-MEL-5 melanoma was greater than 100 µM each time.
In the case of `c1ccc(/C(=N/Nc2nc3ccccc3s2)C2CCCCC2)nc1`, the TGI with SF-539 CNS is 27.5 µM; with HOP-62 NSCLC, 23.5 µM; with NCI-H460 lung, 26.1 µM; in the test with CAKI-1 renal, 21.6 µM; in the test on HCT-15 colon, 15.8 µM; in the test on ACHN renal it was 19.3 µM. Moreover, the TGI in the test with SF-295 CNS worked out at 29.9 µM; in the test with NCI/ADR-RES ovarian, 10.3 µM; in the test on SK-MEL-5 melanoma, 18.9 µM.
With `N#CCCN(CCC#N)c1ccc(/C=C2\N=C(c3ccccc3)N(c3ccc(F)cc3)C2=O)cc1`, the TGI in the test with SF-539 CNS, with HOP-62 NSCLC, with NCI-H460 lung, in the test on CAKI-1 renal, in the test with HCT-15 colon and in the test on ACHN renal was greater than 100 µM each time. Also, the TGI in the test with SF-295 CNS, in the test on NCI/ADR-RES ovarian and with SK-MEL-5 melanoma was greater than 100 µM in each case.
`COc1ccc([C@H]2[C@H]3COC(=O)[C@H]3C(C#N)=C3Sc4ccccc4N32)cc1`: the TGI was greater than 100 µM with SF-539 CNS; greater than 100 µM in the test on HOP-62 NSCLC; greater than 100 µM with NCI-H460 lung; greater than 62.3 µM with CAKI-1 renal; greater than 87.4 µM with HCT-15 colon; greater than 100 µM with ACHN renal. Moreover, the TGI with SF-295 CNS was greater than 90.8 µM; in the test with NCI/ADR-RES ovarian, greater than 62.5 µM; with SK-MEL-5 melanoma, greater than 57.3 µM.
As for `N#Cc1c(-c2ccc(Cl)cc2)c2c(nn3c4ccc5ccccc5c4nnc23)[nH]c1=O`, the TGI in the test on SF-539 CNS was 3.96 µM; in the test with HOP-62 NSCLC it was 7.97 µM; in the test on NCI-H460 lung, 16.2 µM; with CAKI-1 renal it was 8.5 µM; with HCT-15 colon, 6.35 µM; in the test on ACHN renal it was 8.76 µM. The figures for the TGI with SF-295 CNS, with NCI/ADR-RES ovarian and with SK-MEL-5 melanoma were 5.47 µM, 26 µM and 6.27 µM, respectively.
Regarding `Oc1cc(Cc2ccccc2)c(Cc2ccccc2)cc1O`, the TGI in the test on SF-539 CNS, in the test with HOP-62 NSCLC, in the test on NCI-H460 lung, in the test on CAKI-1 renal, with HCT-15 colon and in the test with ACHN renal was greater than 10 µM in each case. Further, the TGI in the test with SF-295 CNS, in the test with NCI/ADR-RES ovarian and in the test on SK-MEL-5 melanoma was greater than 10 µM each time.
`CC(=O)Nc1ccc2c(C)c3c(nc2n1)[nH]c1ccccc13`: the TGI is greater than 100 µM in the test on SF-539 CNS; greater than 100 µM with HOP-62 NSCLC; 49 µM in the test with NCI-H460 lung; 96.2 µM in the test with CAKI-1 renal; 64.5 µM in the test on HCT-15 colon; 59.6 µM with ACHN renal. Besides, the TGI in the test on SF-295 CNS amounted to 78.8 µM; in the test with NCI/ADR-RES ovarian, 62.1 µM; in the test with SK-MEL-5 melanoma, 28 µM.
As for `Nc1n(CC(=O)c2ccccc2)nc2sc(-c3ccccc3)n[n+]12`, the TGI is 25.3 µM in the test on SF-539 CNS; 52.5 µM in the test with HOP-62 NSCLC; 30.5 µM in the test with NCI-H460 lung; 91.7 µM in the test on CAKI-1 renal; greater than 100 µM with HCT-15 colon; 29.6 µM in the test with ACHN renal. For the same compound, the TGI was 55 µM in the test on SF-295 CNS, greater than 100 µM in the test on NCI/ADR-RES ovarian and 22 µM with SK-MEL-5 melanoma.
Take `CC(C)/C(Cl)=N/OC(=O)Nc1ccc(Br)cc1`: the TGI in the test on SF-539 CNS amounted to 29.1 µM; with HOP-62 NSCLC, 31.7 µM; in the test with NCI-H460 lung, 30.7 µM; with CAKI-1 renal, 3.2 µM; with HCT-15 colon, 5.34 µM; in the test with ACHN renal it was 3.77 µM. In addition, the values for the TGI with SF-295 CNS, in the test on NCI/ADR-RES ovarian and with SK-MEL-5 melanoma were 28.8 µM, 27.8 µM and 26.3 µM, respectively.
`N=C1C(=N)c2ccccc2-c2ccccc21.[Cl-].[Ru+2].c1ccc(-c2ccccn2)nc1.c1ccc(-c2ccccn2)nc1`: the TGI with SF-539 CNS, with HOP-62 NSCLC, in the test with NCI-H460 lung, in the test on HCT-15 colon, in the test with ACHN renal and in the test on SF-295 CNS was greater than 100 µM in each case. Also, the TGI in the test on M19-MEL melanoma and in the test with SK-MEL-5 melanoma was greater than 100 µM each time. For the same compound, the GI50 in the test on M19-MEL melanoma is greater than 100 µM.
Consider `CN(C)CC(O)c1ccc(Cl)c2ccccc12` (stereo not given), for which the TGI in the test with SF-539 CNS is greater than 100 µM; in the test with HOP-62 NSCLC, greater than 100 µM; in the test on NCI-H460 lung, greater than 100 µM; in the test with CAKI-1 renal it was greater than 96.6 µM; in the test on HCT-15 colon it was greater than 100 µM; with ACHN renal it was greater than 100 µM. Also, the TGI is greater than 63.6 µM in the test on SF-295 CNS, greater than 100 µM in the test with NCI/ADR-RES ovarian and 31.4 µM in the test on SK-MEL-5 melanoma.
On to `COc1cc2c(c3c1c(=O)c1ccccc1n3C)C=CC1(CCCC1)O2`, for which the TGI is 17.3 µM in the test with SF-539 CNS; 28.7 µM in the test on HOP-62 NSCLC; 24.6 µM in the test with NCI-H460 lung; 6.33 µM in the test on CAKI-1 renal; 35.5 µM in the test with HCT-15 colon; 32.7 µM with ACHN renal. For the same compound, the TGI with SF-295 CNS is 12.1 µM; with NCI/ADR-RES ovarian it was greater than 100 µM; in the test with SK-MEL-5 melanoma, 25.6 µM.
Take `C=CCSC1=N/C(=C\c2ccc(Cl)cc2)C(=O)N1CC=C`: the TGI in the test with SF-539 CNS, in the test on HOP-62 NSCLC, in the test with NCI-H460 lung, with CAKI-1 renal, in the test on HCT-15 colon and in the test on ACHN renal was greater than 100 µM each time. Further, the TGI in the test on SF-295 CNS was greater than 100 µM; with NCI/ADR-RES ovarian, greater than 100 µM; in the test on SK-MEL-5 melanoma, 31 µM.
Consider `COC1CC(N)(c2ccccc2)C(O)C(C)O1` (stereo not given), for which the TGI in the test on SF-539 CNS, in the test on HOP-62 NSCLC, with NCI-H460 lung, in the test with CAKI-1 renal, in the test on HCT-15 colon and with ACHN renal was greater than 100 µM throughout. Besides, the TGI in the test with SF-295 CNS, with NCI/ADR-RES ovarian and with SK-MEL-5 melanoma was greater than 100 µM in each case.
